Data taken from patent US7250396B2, “Juvenile hormone compositions and methods for making same” (priority 2003, dated 2007).

Tests used:
[1] = system: day 16 larvae of the Indian Meal Moth, Plodia Interpunctella; test: Effect of methoprene at low concentrations: day 16 larvae on treated paper (behavior, webbing, survival over 19 days); assay type: in vivo
Experimental: An experiment was set up to determine the effectiveness of methoprene at very low concentrations on day 16 larvae of the Indian Meal Moth, Plodia Interpunctella. The concentrations tested ranged from the control at 0 wppm to 1000 wppm increasing by increments of 10×. Ten larvae per sample were added to the treated paper and exposed throughout the experiment in an incubator (Precision Model No. 815) at 80° F. (27° C.) and at a relative humidity of 60 percent. Behavior, webbing characteristics and survival rates were observed over 19 days.
The coating formulation components (excluding methoprene) and preparation procedure are described in Table 1, below.
As the Benzophenone was added to the mixture in step 7, above, the mixture was stirred in a mixer at 1500 rpm and at a temperature of 70° F. (21° C.) until the benzophenone was dissolved. As the methoprene was added to the mixture in step 8, above, the mixture was stirred in a mixer at 1500 rpm and at a temperature of 89° F. (32° C.).

[2] = system: 16 day Indian Meal Moth larvae; test: Exposure of 16 day larvae to methoprene for varying periods of time; assay type: in vivo, Plodia Interpunctella; details: 1000 wppm MP
Experimental: An experiment was set up to determine the effect of exposing 16 day Indian Meal Moth larvae to methoprene for varying periods of time. The treatment levels tested were control at 0 wppm methoprene and 1000 wppm methoprene. Five larvae (3 females, 2 males) per sample were added to paper treated with the coating composition described in Example 1. The larvae were exposed to the samples for different amount of time. The times of exposure were 0 hrs., 20 min., 1 hr., 2 hrs., 4 hrs., 8 hrs., and 24 hrs. After larvae were exposed for the set amount of time, they were placed in an incubator (Precision Model No. 815) at 80° F. (27° C.) and at a relative humidity of 60 percent, where they were allowed to pupate, become adults, and reproduce. Observations were obtained throughout a 16 day period. From when adults hatched, the number of adults were counted and averaged over the remainder of the experiment. The number of new eggs were also counted and the average number of eggs per adult was calculated. Generally, egg production decreased as treatment levels increased.

Indian Meal Moth adults = test: Adult exposure to liquid methoprene in a UV coating: egg production and viability; assay type: in vivo, Plodia Interpunctella; details: for Total Percent Reduction: compared to the control; for Total No. of Eggs: eggs collected over 8 days; for Total No. of Viable Eggs: eggs that hatched
Experimental: An experiment was set up to determine how egg production would be affected when Indian Meal Moth adults were exposed to liquid methoprene in a UV coating. Adults were allowed to emerge into jars lined with treated paper. The treatment levels tested were a control at 0 wppm to 1000 wppm increasing by increments of 10×. A combination treatment of liquid methoprene at 1000 wppm and 1 weight percent diatomaceous earth was also tested. The eggs produced fell to a treated surface before being collected and placed into rearing food. Observations and egg collections were taken over a […] period.
The adults came from stock insects and the number exposed per treatment was not predetermined. The total number of eggs represents all eggs per treatment collected over 8 days. The total number of viable eggs represents the number of eggs that hatched. These larvae were allowed to feed for 14 days before counting.

COC(C)(C)CCCC(C)C/C=C/C(C)=C/C(=O)OC(C)C (centres unmarked) [methoprene, isopropyl-(2E, 4E)-11-methoxy-3,7,11-trimethyl-2,4-dodecadienoate]
SURVIVAL RATE ([1]; 1 wppm methoprene in coating, day 4): 8 number of larvae surviving out of 10 larvae
SURVIVAL RATE ([1]; 1 wppm methoprene in coating, day 7): 7 number of larvae surviving out of 10 larvae
SURVIVAL RATE ([1]; 1 wppm methoprene in coating, day 11): 6 number of larvae surviving out of 10 larvae
SURVIVAL RATE ([1]; 1 wppm methoprene in coating, day 13): 5 number of larvae surviving out of 10 larvae
SURVIVAL RATE ([1]; 1 wppm methoprene in coating, day 19): 1 number of larvae surviving out of 10 larvae
SURVIVAL RATE ([1]; 10 wppm methoprene in coating, day 4): 8 number of larvae surviving out of 10 larvae
SURVIVAL RATE ([1]; 10 wppm methoprene in coating, day 7): 8 number of larvae surviving out of 10 larvae
SURVIVAL RATE ([1]; 10 wppm methoprene in coating, day 11): 7 number of larvae surviving out of 10 larvae
SURVIVAL RATE ([1]; 10 wppm methoprene in coating, day 13): 7 number of larvae surviving out of 10 larvae
SURVIVAL RATE ([1]; 10 wppm methoprene in coating, day 19): 2 number of larvae surviving out of 10 larvae
SURVIVAL RATE ([1]; 100 wppm methoprene in coating, day 4): 6 number of larvae surviving out of 10 larvae
SURVIVAL RATE ([1]; 100 wppm methoprene in coating, day 7): 4 number of larvae surviving out of 10 larvae
SURVIVAL RATE ([1]; 100 wppm methoprene in coating, day 11): 1 number of larvae surviving out of 10 larvae
SURVIVAL RATE ([1]; 100 wppm methoprene in coating, day 13): 1 number of larvae surviving out of 10 larvae
SURVIVAL RATE ([1]; 100 wppm methoprene in coating, day 19): 1 number of larvae surviving out of 10 larvae
SURVIVAL RATE ([1]; 1000 wppm methoprene in coating, day 4): 7 number of larvae surviving out of 10 larvae
SURVIVAL RATE ([1]; 1000 wppm methoprene in coating, day 7): 5 number of larvae surviving out of 10 larvae
SURVIVAL RATE ([1]; 1000 wppm methoprene in coating, day 11): 3 number of larvae surviving out of 10 larvae
SURVIVAL RATE ([1]; 1000 wppm methoprene in coating, day 13): 3 number of larvae surviving out of 10 larvae
SURVIVAL RATE ([1]; 1000 wppm methoprene in coating, day 19): 0 number of larvae surviving out of 10 larvae
Behavior ([1]; exposed larvae, as early as day 4 of the testing period, increased nipping and cannibalism): showed signs of aggression
Webbing characteristics ([1]; larvae exposed to 1 wppm methoprene): slightly thicker throughout the dish than the control
Webbing characteristics ([1]; larvae exposed to 10 wppm methoprene): thicker, more centralized webbing
Webbing characteristics ([1]; larvae exposed to 10 wppm methoprene (second mention, compared with the 10 wppm sample)): dense and more centralized than the 10 wppm methoprene sample
Webbing characteristics ([1]; larvae exposed to 1000 wppm methoprene): completely centralized mound of webbing
survival rate compared to the control sample ([1]; treatment levels as low as 1 wppm): significant decrease in survival rate
Average No. of Adults/Day ([2]; time exposed 20 min.): 10
Average No. of Eggs/Adult ([2]; time exposed 20 min.): 34
Average No. of Adults/Day ([2]; time exposed 1 hr.): 12
Average No. of Eggs/Adult ([2]; time exposed 1 hr.): 30
Average No. of Adults/Day ([2]; time exposed 2 hrs.): 12
Average No. of Eggs/Adult ([2]; time exposed 2 hrs.): 19
Average No. of Adults/Day ([2]; time exposed 4 hrs.): 10
Average No. of Eggs/Adult ([2]; time exposed 4 hrs.): 25
Average No. of Adults/Day ([2]; time exposed 8 hrs.): 9
Average No. of Eggs/Adult ([2]; time exposed 8 hrs.): 17
Average No. of Adults/Day ([2]; time exposed 24 hrs.): 7
Average No. of Eggs/Adult ([2]; time exposed 24 hrs.): 9
Percent Viable Eggs (Indian Meal Moth adults; 10 wppm MP): 7.5%
Total Percent Reduction (Indian Meal Moth adults; 10 wppm MP): 85.6%
Total No. of Eggs (Indian Meal Moth adults; 10 wppm MP): 1430
Total No. of Viable Eggs (Indian Meal Moth adults; 10 wppm MP): 108
Percent Viable Eggs (Indian Meal Moth adults; 100 wppm MP): 18%
Total Percent Reduction (Indian Meal Moth adults; 100 wppm MP): 65.4%
Total No. of Eggs (Indian Meal Moth adults; 100 wppm MP): 1285
Total No. of Viable Eggs (Indian Meal Moth adults; 100 wppm MP): 234
Percent Viable Eggs (Indian Meal Moth adults; 1000 wppm MP): 36%
Total Percent Reduction (Indian Meal Moth adults; 1000 wppm MP): 30.8%
Total No. of Eggs (Indian Meal Moth adults; 1000 wppm MP): 1190
Total No. of Viable Eggs (Indian Meal Moth adults; 1000 wppm MP): 432
